System: rodent lifetime carcinogenesis bioassay, tumor incidence TD50
Assay: carcinogenic potency in animals, long-term in vivo studies, CPDB compilation (AID 1745844)
Conditions: inhaled

C=CCl
TD50 (hamster, strain Syrian Golden, females, site: all sites, lesion: hemangiosarcoma, dosed 26 weeks, study length 104 weeks): 78.6 mg/kg/day | TD50 (hamster, strain Syrian Golden, females, site: all sites, lesion: hemangiosarcoma, dosed 52 weeks, study length 104 weeks): 314 mg/kg/day | TD50 (hamster, strain Syrian Golden, females, site: all sites, lesion: hemangiosarcoma, dosed 78 weeks, study length 104 weeks): 1920 mg/kg/day | TD50 (hamster, strain Syrian Golden, females, site: mammary gland, lesion: carcinoma, dosed 26 weeks, study length 104 weeks): 32.3 mg/kg/day | TD50 (hamster, strain Syrian Golden, females, site: mammary gland, lesion: carcinoma, dosed 52 weeks, study length 104 weeks): 27.7 mg/kg/day | TD50 (hamster, strain Syrian Golden, females, site: mammary gland, lesion: carcinoma, dosed 78 weeks, study length 104 weeks): 61 mg/kg/day | TD50 (hamster, strain Syrian Golden, females, site: skin, lesion: carcinoma, dosed 52 weeks, study length 104 weeks): 121 mg/kg/day | TD50 (hamster, strain Syrian Golden, females, site: stomach, lesion: adenoma, dosed 26 weeks, study length 104 weeks): 47.2 mg/kg/day | TD50 (hamster, strain Syrian Golden, females, site: stomach, lesion: adenoma, dosed 52 weeks, study length 104 weeks): 1010 mg/kg/day | TD50 (hamster, strain Syrian Golden, females, site: stomach, lesion: adenoma, dosed 78 weeks, study length 104 weeks): 205 mg/kg/day | TD50 (hamster, strain Syrian Golden, males, site: acoustic duct, lesion: epithelioma, dosed 30 weeks, study length 101 weeks): 855 mg/kg/day | TD50 (hamster, strain Syrian Golden, males, site: all sites, lesion: leukemia, dosed 30 weeks, study length 101 weeks): 25800 mg/kg/day | TD50 (hamster, strain Syrian Golden, males, site: extrahepatic tissue, lesion: angioma, dosed 30 weeks, study length 101 weeks): 9800 mg/kg/day | TD50 (hamster, strain Syrian Golden, males, site: forestomach, lesion: epithelioma, dosed 30 weeks, study length 101 weeks): 55 mg/kg/day | TD50 (hamster, strain Syrian Golden, males, site: liver, lesion: angioma, dosed 30 weeks, study length 101 weeks): 2380 mg/kg/day | TD50 (hamster, strain Syrian Golden, males, site: liver, lesion: angiosarcoma, dosed 30 weeks, study length 101 weeks): 91800 mg/kg/day | TD50 (hamster, strain Syrian Golden, males, site: liver, lesion: hepatoma, dosed 30 weeks, study length 101 weeks): 1730 mg/kg/day | TD50 (hamster, strain Syrian Golden, males, site: skin, lesion: epithelioma, dosed 30 weeks, study length 101 weeks): 9350 mg/kg/day | TD50 (hamster, strain Syrian Golden, males, site: skin, lesion: melanoma, dosed 30 weeks, study length 101 weeks): 7630 mg/kg/day | TD50 (mouse, strain Charles River CD1, females, site: liver, lesion: hemangiosarcoma, dosed 26 weeks, study length 58 weeks): 91.9 mg/kg/day | TD50 (mouse, strain Charles River CD1, females, site: lung, lesion: alveolar/bronchiolar tumor, dosed 26 weeks, study length 58 weeks): 142 mg/kg/day | TD50 (mouse, strain Charles River CD1, females, site: mammary gland, lesion: malignant tumor, dosed 26 weeks, study length 58 weeks): 249 mg/kg/day | TD50 (mouse, strain Charles River CD1, males, site: liver, lesion: hemangiosarcoma, dosed 26 weeks, study length 78 weeks): 32 mg/kg/day | TD50 (mouse, strain Charles River CD1, males, site: lung, lesion: alveolar/bronchiolar tumor, dosed 26 weeks, study length 78 weeks): 88.7 mg/kg/day | TD50 (mouse, strain Swiss, females, site: all sites, lesion: hemangiosarcoma, dosed 26 weeks, study length 104 weeks): 12.5 mg/kg/day | TD50 (mouse, strain Swiss, females, site: all sites, lesion: hemangiosarcoma, dosed 52 weeks, study length 104 weeks): 13.8 mg/kg/day | TD50 (mouse, strain Swiss, females, site: all sites, lesion: hemangiosarcoma, dosed 78 weeks, study length 104 weeks): 36.1 mg/kg/day | TD50 (mouse, strain Swiss, females, site: any site (literature study), lesion: several types, types named in the paper, dosed 30 weeks, study length 77 weeks): 600 mg/kg/day | TD50 (mouse, strain Swiss, females, site: extrahepatic tissue, lesion: angioma, dosed 30 weeks, study length 77 weeks): 70900 mg/kg/day | TD50 (mouse, strain Swiss, females, site: extrahepatic tissue, lesion: angiosarcoma, dosed 30 weeks, study length 77 weeks): 736 mg/kg/day | TD50 (mouse, strain Swiss, females, site: forestomach, lesion: epithelioma, dosed 30 weeks, study length 77 weeks): 9820 mg/kg/day | TD50 (mouse, strain Swiss, females, site: liver, lesion: angioma, dosed 30 weeks, study length 77 weeks): 196 mg/kg/day | TD50 (mouse, strain Swiss, females, site: liver, lesion: angiosarcoma, dosed 30 weeks, study length 77 weeks): 98.8 mg/kg/day | TD50 (mouse, strain Swiss, females, site: liver, lesion: hepatoma, dosed 30 weeks, study length 77 weeks): 12200 mg/kg/day | TD50 (mouse, strain Swiss, females, site: lung, lesion: adenoma, dosed 30 weeks, study length 77 weeks): 402 mg/kg/day | TD50 (mouse, strain Swiss, females, site: lung, lesion: carcinoma, dosed 26 weeks, study length 104 weeks): 36.6 mg/kg/day | TD50 (mouse, strain Swiss, females, site: lung, lesion: carcinoma, dosed 52 weeks, study length 104 weeks): 55.5 mg/kg/day | TD50 (mouse, strain Swiss, females, site: lung, lesion: carcinoma, dosed 78 weeks, study length 104 weeks): 143 mg/kg/day | TD50 (mouse, strain Swiss, females, site: mammary gland, lesion: carcinoma, dosed 26 weeks, study length 104 weeks): 10.6 mg/kg/day | TD50 (mouse, strain Swiss, females, site: mammary gland, lesion: carcinoma, dosed 30 weeks, study length 77 weeks): 3750 mg/kg/day | TD50 (mouse, strain Swiss, females, site: mammary gland, lesion: carcinoma, dosed 52 weeks, study length 104 weeks): 22.9 mg/kg/day | TD50 (mouse, strain Swiss, females, site: mammary gland, lesion: carcinoma, dosed 78 weeks, study length 104 weeks): 32.2 mg/kg/day | TD50 (mouse, strain Swiss, females, site: skin, lesion: epithelioma, dosed 30 weeks, study length 77 weeks): 25100 mg/kg/day | TD50 (mouse, strain Swiss, males, site: any site (literature study), lesion: several types, types named in the paper, dosed 30 weeks, study length 77 weeks): 26.1 mg/kg/day | TD50 (mouse, strain Swiss, males, site: extrahepatic tissue, lesion: angioma, dosed 30 weeks, study length 77 weeks): 12300 mg/kg/day | TD50 (mouse, strain Swiss, males, site: extrahepatic tissue, lesion: angiosarcoma, dosed 30 weeks, study length 77 weeks): 8030 mg/kg/day | TD50 (mouse, strain Swiss, males, site: forestomach, lesion: epithelioma, dosed 30 weeks, study length 77 weeks): 5190 mg/kg/day | TD50 (mouse, strain Swiss, males, site: liver, lesion: angioma, dosed 30 weeks, study length 77 weeks): 1080 mg/kg/day | TD50 (mouse, strain Swiss, males, site: liver, lesion: angiosarcoma, dosed 30 weeks, study length 77 weeks): 70.8 mg/kg/day | TD50 (mouse, strain Swiss, males, site: liver, lesion: hepatoma, dosed 30 weeks, study length 77 weeks): 25200 mg/kg/day | TD50 (mouse, strain Swiss, males, site: lung, lesion: adenoma, dosed 30 weeks, study length 77 weeks): 14 mg/kg/day | TD50 (mouse, strain Swiss, males, site: skin, lesion: epithelioma, dosed 30 weeks, study length 77 weeks): 2690 mg/kg/day

— PubChem BioAssay AID1745844 (Carcinogenic Potency Database (CPDB), 2022)
